Measured values: patent US20020168436A1, “Decursinol or derivative thereof as analgesic agent” (priority 2000, published 2002)

How the values were obtained:
OX-42 = assay: Immunohistochemical staining of OX-42 in pyriform cortex and amygdaloid nucleus; type: in vivo, mouse; conditions: 0.006% (w/v) in drinking water for 4 weeks; 1 day after β-amyloid(1-42); compared with β-amyloid(1-42) only; FIGS. 8c and 8f
Procedure: 4- to 5-week old mice each weighing 20 to 25 g was divided into three groups. Ferulic acid was dissolved in water to a concentration of 0.006% (w/v), and the mice of one group were provided with the resulting solution instead of water for 4 weeks. The mice of other two groups were provided with normal drinking water for 4 weeks. Thereafter, the mice of one of two normal drinking water groups were administered, into their cerebral ventricle, with 1.85 μg of β-amyloid(42-1) (“control group”) and the mice of the remaining two groups, with β-amyloid(1-42) (Aβ1-42), as in Reference Example 1.
One day after the administration of β-amyloid, each of the mice was anesthetized with sodium pentobarbital and its abdomen was incised. The mouse was fixed by passing 4% paraformaldehyde through its left ventricle and its brain was excised.
In accordance with the method described in Cho et al., J. Comp. Neurol., 369: 264-276(1996), a section was prepared from the excised brain and immunohistochemical staining was carried out in order to stain […] in the pyriform cortex and the amygdaloid nucleus by employing 1:500 dilution of anti-OX-42 antibody (Halan (Sera-Lab)).

[1] = test system: mice administered with β-amyloid(1-42); assay: Passive avoidance test in mice given β-amyloid(1-42) into the cerebral ventricle; type: in vivo, mouse; conditions: for dementia-preventive effect in passive avoidance test: FIGS. 7A and 7B
Procedure: (§1) The administration of β-amyloid(1-42) to a mouse was carried out in accordance with the method described by Laursen & Belknap(J. Pharmacol. Methods, 16, 355-357 (1986)). Specifically, 5 μl of phosphate-buffered saline containing 1.85 μg of β-amyloid(1-42) was put in a 50 μl Hamilton syringe fitted with a 26 gauge needle, the tip of the needle was inserted into the bregma of the mouse and then the β-amyloid(1-42) solution was administered thereto. Each mouse of a control group received an equal amount of β-amyloid(42-1) in place of β-amyloid(1-42). A passive avoidance test was carried out at days 1-2 (day 1: training, day 2: test) and a Y-maze test, at days 3-4 (day 3: training, day 4: test) after the administration.
In order to examine the learning and memory-retention ability of a mouse, a passive avoidance test was carried out in accordance with the method described in Song et al., J. Neurochem., 71, 875-878 (1998), as follows.
A passive avoidance case equipped with a light room and a dark room was prepared, the floor of the dark room being designed to deliver an electrical shock to a test animal. First, a mouse was put in the light room and, upon entering the dark room, it received an electrical shock at 0.25 mA for 1 sec. Twenty-four hours after the training, the mouse was put in the light room again and the time it took to enter the dark room was measured as a passive avoidance time. The maximum time was set at 300 sec., i.e., in case when the mouse took more than 300 sec. to enter the dark room, the passive avoidance time was determined to be 300 sec.
Forty 4- to 5-week old mice each weighing 20 to 25 g were divided into four groups of equal number. The Angelicae gigas Nakai extract prepared in Example 1 was dissolved in water to concentrations of 0.08% (w/v) and 0.1% (w/v), respectively, and the mice of two groups were provided with the resulting solutions instead of water for 4 weeks at a daily dose of 8 ml of the solution/mouse. The mice of the other two groups were provided with normal drinking water for 4 weeks. Thereafter, the mice of one of the two normal drinking water groups were administered into their cerebral ventricle with 1.85 μg of β-amyloid(42-1) (“control group”) and the mice of the remaining three groups, with β-amyloid(1-42) (Aβ1-42), as in Reference Example 1. Then, a passive avoidance test was carried out for each group of mice as in Reference Example 2 and the data attained were averaged for each group.
Fifty 4- to 5-week old mice each weighing 20 to 25 g were divided into five groups by equal number. Ferulic acid was dissolved in water to concentrations of 0.002 % (w/v), 0.004 % (w/v) and 0.006 % (w/v), respectively, and the mice of three groups were provided with the resulting solutions instead of water for 4 weeks at a daily dose of 8 ml of the solution/mouse. The mice of the other two groups were provided with normal drinking water for 4 weeks. Thereafter, the mice of one of two normal drinking water groups were administered into their cerebral ventricle with 1.85 μg of β-(42-1) (“control group”) and the mice of the remaining four groups, with β-amyloid(1-42) (Aβ1-42), as in Reference Example 1. Then, a passive avoidance test was carried out for each group of mice as in Reference Example 2 and the data attained were averaged for each group.
Forty 4- to 5-week old mice each weighing 20 to 25 g were divided into four groups of equal number. […]

[2] = test system: mice administered with β-amyloid(1-42); assay: Y-maze test in mice given β-amyloid(1-42) into the cerebral ventricle; type: in vivo, mouse; conditions: for alternation behavior (%): compared with the group given β-amyloid(1-42) only
Procedure: as §1
Spontaneous alternation behavior of a mouse was examined by a Y-maze test in accordance with the method described in Starter et al., Psychopharmacology, 94, 491-495 (1988) as follows.
The Y-maze consisted of three arms shaped like Y. A test mouse was placed in one of the arms such that it faced the arm's terminal and allowed to roan freely through the three arms for […]. The number of alternation was determined by counting the number of occasions the mouse passed the three arms consecutively. Spontaneous alternation behavior was determined as the percentage of the alternation number based on the total number of arm entries.
Further, Y-maze tests were carried out employing the above-prepared mice as in Reference Example 3.
Forty 4- to 5-week old mice each weighing 20 to 25 g were divided into four groups of equal number. Decursinol was dissolved in corn oil, mixed with a mouse fodder, and the mice of two groups were provided with the resulting fodder for 4 weeks at a daily dose of 7.5 mg decursinol/kg or 15 mg decursinol/kg. The mice of the other two groups were provided with a normal mouse fodder containing an equal amount of corn oil as above for 4 weeks. Thereafter, the mice of one of the two normal fodder groups were administered, into their cerebral ventricle, with 1.85 μg of β-(42-1) (“control group”) and the mice of the remaining three groups, with β-amyloid(1-42) (Aβ1-42), as in Reference Example 1. Then, a passive avoidance test and a Y-maze test were carried out for each group of mice as in Reference Examples 2 and 3, respectively, and the data attained were averaged for each group.

[3] = test system: choline acetyltransferase (ChAT); assay: Immunohistochemical staining of ChAT in septal nucleus; type: in vivo, mouse; conditions: 0.006% (w/v) in drinking water for 4 weeks; 5 days after β-amyloid(1-42); FIG. 9c
Procedure: Three groups of mice were administered with ferulic acid and/or β-amyloid in accordance with the method of (1). 5 days after the administration of β-amyloid, immunohistochemical staining was carried out according to the method of (1) except for employing 1:750 dilution of anti-choline-acetyltransferase (ChAT) antibody (Chemicon) in order to stain ChAT, an enzyme for acetylcholine synthesis, in the septal nucleus wherein acetylcholine neurons are distributed.

[4] = test system: primary mouse cortical culture; assay: β-amyloid(1-42)-induced leakage of lactate dehydrogenase (LDH) from cultured neurons; type: cell-based; conditions: 100 μM, 30 minutes before 25 μM β-amyloid(1-42); 24 and 48 hours; compared with β-amyloid(1-42) group; FIG. 10
Procedure: The culture of mouse cerebral neurons was divided into three groups. Neurons of one group received no treatment (control group). […] The degree of damage in neurons was determined by measuring the concentration of lactate dehydrogenase (LDH), which was released from the damaged or disrupted neurons into the culture medium, in accordance with the method of Wie et al. Samples of the culture medium were taken at 24 and 48 hours after the administration of β-amyloid(1-42), respectively, and their LDH concentrations were measured with a microplate reader.

Structure (SMILES) | OX-42 staining (OX-42) | decrease in the passive avoidance response time ([1]; 0.002, 0.004 and 0.006% (w/v) in drinking water for 4 weeks before β-amyloid(1-42), FIG. 3A) | passive avoidance response time ([1]; 0.006% (w/v) in drinking water for 1, 2, 3 and 4 weeks, FIG. 3B) | dementia-preventive effect in passive avoidance test ([1]; alone in a low amount: 0.002% or 0.003% (w/v) ferulic acid) | number of arm entries (spontaneous movement) ([2]; 0.006% (w/v) for 1 to 4 weeks, FIG. 4B) | alternation behavior (%) ([2]; 0.006% (w/v) for 1 to 4 weeks, FIG. 4A) | ChAT staining [3] | LDH concentration in culture medium [4] | decrease in the passive avoidance response time due to β-amyloid(1-42) ([1]; 7.5 or 15 mg/kg daily in fodder for 4 weeks, FIG. 6A) | dementia-preventive effect in passive avoidance test ([1]; alone in a low amount: 2 mg/kg or 3 mg/kg decursinol) | number of arm entries (spontaneous movement) ([2]; 7.5 or 15 mg/kg daily in fodder for 4 weeks, FIG. 6C) | alternation behavior (%) ([2]; 7.5 or 15 mg/kg daily in fodder for 4 weeks, FIG. 6B)
COc1cc(/C=C/C(=O)O)ccc1O [ferulic acid] | much less pronounced | prevented dose-dependently | becomes increasingly higher with the period of administration | no dementia-preventive effect | nearly the same for all groups | higher and increased in proportion to the period of administration | the decrease was suppressed | much lower |  |  |  | 
CC1(C)Oc2cc3oc(=O)ccc3cc2C[C@@H]1O [decursinol] |  |  |  |  |  |  |  |  | prevented | no dementia-preventive effect | nearly the same for all groups | higher and increased dose-dependently
